Structures are written as SMILES. “And” between values parts separate entries of the source, which are not always exact repeats. Equal entries are not always repeated.

This series is described as follows: impurities levels (Mesna disulphide percentage) of lyophilizate Mesna compositions. In kind it is physicochemical. Conditions: content in composition. How it is done:
Measurements of Mesna disulfide percentage were conducted for different Mesna lyophilizates made according to the present invention. The compositions of the tested Mesna lyophilizates comprised 125 mg or 250 mg of Mesna in 2 ml Water for Injection. Other tested Mesna lyophilizates compositions further comprised trehalose or Mannitol. […] Any slightly higher increase was of maximum 0.5% compared to the Mesna disulfide percentage measured for the pharmaceutical grade Mesna (Table 2). […] In addition, the sum of Mesna disulphide percentage and other impurities percentage was also always lower than said maximum of 3%.

As for `O=S(=O)([O-])CCS.[Na+]` [Mesna P, Sodium 2-mercaptoethanesulfonate], the MESNA was 98.82% and 98.80% and 98.96%; the Other impurities is 0.15% and 0.20% and 0.19%. Also, for the setting “stability marker”, the Mesna disulphide was 1.03% and 1.00% and 0.85%.

The values above are taken from patent publication US10220010B2 (AuXin Surgery SA, priority 2014, dated 2019).
